Test results published in the supplement of paper PMC5908809.

Tests used:
SNK-6 (IL-2 2.5 ng/mL) [1] = assay: drug sensitivity score (DSS) (DSS units); higher = more sensitive; extreme values may be limits of the assay; conditions: 72 h
KAI3 (IL-2 2.5 ng/mL) [2] = assay: as above; conditions: 72 h
NK-92 (IL-2 2.5 ng/mL) [3] = assay: as above; conditions: 72 h
[4] = tested on: normal primary NK cells, pool 1 (3 donors), resting (IL-2 0 ng/mL); assay: as above; conditions: 72 h
NKL (IL-2 2.5 ng/mL) [5] = assay: as above; conditions: 72 h
DERL-7 (IL-2 2.5 ng/mL) [6] = assay: as above; conditions: 72 h
IMC-1 (IL-2 20 ng/mL) [7] = assay: as above; conditions: 72 h
YT (IL-2 2.5 ng/mL) [8] = assay: as above; conditions: 72 h
[9] = tested on: normal primary NK cells, pool 1 (3 donors) (IL-2 2.5 ng/mL); assay: as above; conditions: 72 h
KHYG-1 (IL-2 2.5 ng/mL) [10] = assay: as above; conditions: 72 h
NK-YS (IL-2 2.5 ng/mL) [11] = assay: as above; conditions: 72 h
[12] = tested on: normal primary NK cells, pool 2 (3 donors) (IL-2 2.5 ng/mL); assay: as above; conditions: 72 h
[13] = tested on: normal primary NK cells, pool 3 (3 donors) (IL-2 2.5 ng/mL); assay: as above; conditions: 72 h
[14] = tested on: normal NK cells expanded with K562-aAPC; assay: as above; conditions: 72 h; IL-2 2.5 ng/mL
Procedure: (§1)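 Drug sensitivity and resistance testing on K562-aAPC-expanded normal NK cells: 5 concentrations (10-fold steps over a 10,000-fold range), 72 h at 37 °C, viability by CellTiter-Glo normalised to DMSO and benzethonium chloride controls; DSS from the fitted curve.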

[15] = tested on: normal NK cells expanded with K562-aAPC; assay: percent inhibition of viability; higher = more inhibition; conditions: 72 h, IL-2 2.5 ng/mL
Procedure: as §1

SNK-6 (IL-2 2.5 ng/mL) [16] = assay: as above; conditions: 72 h
KAI3 (IL-2 2.5 ng/mL) [17] = assay: as above; conditions: 72 h
NK-92 (IL-2 2.5 ng/mL) [18] = assay: as above; conditions: 72 h
[19] = tested on: normal primary NK cells, pool 1 (3 donors), resting (IL-2 0 ng/mL); assay: as above; conditions: 72 h
NKL (IL-2 2.5 ng/mL) [20] = assay: as above; conditions: 72 h
DERL-7 (IL-2 2.5 ng/mL) [21] = assay: as above; conditions: 72 h
IMC-1 (IL-2 20 ng/mL) [22] = assay: as above; conditions: 72 h
YT (IL-2 2.5 ng/mL) [23] = assay: as above; conditions: 72 h
[24] = tested on: normal primary NK cells, pool 1 (3 donors) (IL-2 2.5 ng/mL); assay: as above; conditions: 72 h
KHYG-1 (IL-2 2.5 ng/mL) [25] = assay: as above; conditions: 72 h
NK-YS (IL-2 2.5 ng/mL) [26] = assay: as above; conditions: 72 h
[27] = tested on: normal primary NK cells, pool 2 (3 donors) (IL-2 2.5 ng/mL); assay: as above; conditions: 72 h
[28] = tested on: normal primary NK cells, pool 3 (3 donors) (IL-2 2.5 ng/mL); assay: as above; conditions: 72 h

CC[C@@]1(O)C(=O)OCc2c1cc1n(c2=O)Cc2cc3c(CN(C)C)c(O)ccc3nc2-1 [Topotecan] (max concentration tested 10000 nM)
Conditions	drug sensitivity score
DERL-7 (IL-2 2.5 ng/mL) [6]	26.9
IMC-1 (IL-2 20 ng/mL) [7]	30.6
KAI3 (IL-2 2.5 ng/mL) [2]	28.5
KHYG-1 (IL-2 2.5 ng/mL) [10]	30.1
NK-92 (IL-2 2.5 ng/mL) [3]	32.8
NK-YS (IL-2 2.5 ng/mL) [11]	29.2
NKL (IL-2 2.5 ng/mL) [5]	29.9
SNK-6 (IL-2 2.5 ng/mL) [1]	29
YT (IL-2 2.5 ng/mL) [8]	27.7
[4]	4.46
[9]	10.3
[12]	8.28
[13]	9.14
[14]	18.3

percent inhibition of viability [%]
Conditions	1 nM	10 nM	100 nM	1000 nM	10000 nM
DERL-7 (IL-2 2.5 ng/mL) [21]	-5.89	8.74	69.9	96.4	100
IMC-1 (IL-2 20 ng/mL) [22]	-3.93	2.9	98.1	99.6	100
KAI3 (IL-2 2.5 ng/mL) [17]	-7.96	6.65	82.9	69.8	100
KHYG-1 (IL-2 2.5 ng/mL) [25]	-8.76	-0.99	98	104	104
NK-92 (IL-2 2.5 ng/mL) [18]	-7.93	14.4	98	102	105
NK-YS (IL-2 2.5 ng/mL) [26]	-4.31	2.83	91.2	94.4	104
NKL (IL-2 2.5 ng/mL) [20]	-16.1	0.22	95.8	101	97.5
SNK-6 (IL-2 2.5 ng/mL) [16]	-7.26	-5.12	93	96.6	99.4
YT (IL-2 2.5 ng/mL) [23]	-6.41	1.19	83.4	102	105
[15]	-4.37	0.95	51.7	58.8	99.9
[19]	-1.44	14.8	4.57	2.84	73.8
[24]	-0.98	18.9	12.2	42.5	84.4
[27]	-7.25	5.21	15.2	31.4	85.2
[28]	-3.05	6.63	20.6	31.7	84.1

C/C(=C\c1csc(C)n1)[C@@H]1C[C@@H]2O[C@]2(C)CCC[C@H](C)[C@H](O)[C@@H](C)C(=O)C(C)(C)[C@@H](O)CC(=O)N1 [Ixabepilone] (max concentration tested 1000 nM)
Conditions	drug sensitivity score
DERL-7 (IL-2 2.5 ng/mL) [6]	5.27
IMC-1 (IL-2 20 ng/mL) [7]	4.92
KAI3 (IL-2 2.5 ng/mL) [2]	2.26
KHYG-1 (IL-2 2.5 ng/mL) [10]	5.84
NK-92 (IL-2 2.5 ng/mL) [3]	4.08
NK-YS (IL-2 2.5 ng/mL) [11]	3.45
NKL (IL-2 2.5 ng/mL) [5]	4.34
SNK-6 (IL-2 2.5 ng/mL) [1]	3.82
YT (IL-2 2.5 ng/mL) [8]	5.3
[4]	0
[9]	0
[12]	0
[13]	0
[14]	2.77

percent inhibition of viability [%]
Conditions	0.1 nM	1 nM	10 nM	100 nM	1000 nM
DERL-7 (IL-2 2.5 ng/mL) [21]	-1.92	-1.52	3.37	-3.24	99.5
IMC-1 (IL-2 20 ng/mL) [22]	-7.65	-4.14	-5.18	-8.88	99.5
KAI3 (IL-2 2.5 ng/mL) [17]	-14.5	-15	-11.8	-8.42	52.3
KHYG-1 (IL-2 2.5 ng/mL) [25]	-4.44	-6.03	-7.83	2.2	99.9
NK-92 (IL-2 2.5 ng/mL) [18]	-7.7	-17.5	-9.17	-20.4	92
NK-YS (IL-2 2.5 ng/mL) [26]	-10.3	-9.56	-5.83	-4.02	68.7
NKL (IL-2 2.5 ng/mL) [20]	1.14	-23.1	-11	-7.09	87.4
SNK-6 (IL-2 2.5 ng/mL) [16]	6.18	12.8	-13.9	-4.41	75.4
YT (IL-2 2.5 ng/mL) [23]	-0.47	-4.36	-8.15	1.21	92.3
[15]	-1.18	-8.46	-3.17	-2.89	56.2
[19]	-34.8	-25.5	-23.3	-10.4	-12
[24]	-13	-15.1	-13.4	-8.88	-3.61
[27]	-8.83	-5.74	-1.71	-8.89	4.45
[28]	-11.4	-5.18	-5.26	-11.3	0.09
